Assay results as given in ChEMBL document CHEMBL3044779, “The action of herbicides on fatty acid biosynthesis and elongation in barley and cucumber” (Pest Manag Sci, 2010).

Key:
[1] = system: Hordeum vulgare; test: Inhibition of fatty acid synthesis in Hordeum vulgare (barley) using [14C]malonate assessed as [14C]-labeled 26C fatty acid level at 1 uM after 3 hr by liquid scintillation counting (reference value: 7.6 +/- 1.8%); type: functional; parameters: scale not given: the % may be the effect or the level left
[2] = system: Hordeum vulgare; test: Inhibition of fatty acid synthesis in Hordeum vulgare (barley) using [14C]acetate assessed as [14C]-labeled 20C fatty acid level at 1 uM after 3 hr by liquid scintillation counting (reference value: 6.6 +/- 2.3%); type: functional; parameters: scale not given: the % may be the effect or the level left
[3] = system: Hordeum vulgare; test: Inhibition of fatty acid synthesis in Hordeum vulgare (barley) using [14C]malonate assessed as [14C]-labeled 18C fatty acid level at 1 uM after 3 hr by liquid scintillation counting (reference value: 30.3 +/- 2.9%); type: functional; parameters: scale not given: the % may be the effect or the level left
[4] = molecular target: T1, Acetyl-CoA carboxylase (Zea mays, UniProt Q3V4E6); test: Inhibition of Zea mays (maize) chloroplastic ACCase using acetyl-coA as substrate assessed as inhibition of [14C]NaHCO3 incorporation into malonyl-coA incubated for 10 min prior to substrate addition measured for 20 min by liquid scintillation counting
T1 sequence (Q3V4E6 whole entry): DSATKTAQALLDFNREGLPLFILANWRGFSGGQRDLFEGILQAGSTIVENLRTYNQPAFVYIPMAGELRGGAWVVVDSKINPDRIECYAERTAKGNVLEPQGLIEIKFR

[5] = system: Hordeum vulgare; test: Inhibition of fatty acid synthesis in Hordeum vulgare (barley) using [14C]malonate assessed as [14C]-labeled 24C fatty acid level at 1 uM after 3 hr by liquid scintillation counting (reference value: 20.7 +/- 1.8%); type: functional; parameters: scale not given: the % may be the effect or the level left
[6] = system: Hordeum vulgare; test: (§1) Inhibition of fatty acid synthesis in Hordeum vulgare (barley) assessed as inhibition of [14C]acetate incoporation in total fatty acids at 1 uM measured as total disintegration per g of fresh weight after 3 hr by liquid scintillation counting (reference value: 4.6 +/- 1.2 dpm x 10^6 g'1 fresh wt); type: functional
[7] = system: Hordeum vulgare; test: Inhibition of fatty acid synthesis in Hordeum vulgare (barley) using [14C]malonate assessed as [14C]-labeled 22C fatty acid level at 1 uM after 3 hr by liquid scintillation counting (reference value: 26.7 +/- 2.6%); type: functional; parameters: scale not given: the % may be the effect or the level left
[8] = system: Cucumis sativus; test: Inhibition of fatty acid synthesis in Cucumis sativus (cucumber) using [14C]acetate assessed as [14C]-labeled 20C fatty acid level at 100 uM after 3 hr by liquid scintillation counting (reference value: 14.7 +/- 0.6%); type: functional; parameters: scale not given: the % may be the effect or the level left
[9] = system: Hordeum vulgare; test: Inhibition of fatty acid synthesis in Hordeum vulgare (barley) assessed as inhibition of [14C]malonate incoporation in total fatty acids at 1 uM measured as total disintegration per g of fresh weight after 3 hr by liquid scintillation counting (reference value: 5.4 +/- 0.9 1 dpm x 10^6 g'1 fresh wt); type: functional
[10] = molecular target: T1, Acetyl-CoA carboxylase; test: Inhibition of Zea mays (maize) cytosolic ACCase using acetyl-coA as substrate assessed as inhibition of [14C]NaHCO3 incorporation into malonyl-coA incubated for 10 min prior to substrate addition measured for 20 min by liquid scintillation counting
[11] = system: Cucumis sativus; test: Inhibition of fatty acid synthesis in Cucumis sativus (cucumber) using [14C]acetate assessed as [14C]-labeled 16C fatty acid level at 100 uM after 3 hr by liquid scintillation counting (reference value: 31 +/- 2.8%); type: functional; parameters: scale not given: the % may be the effect or the level left
[12] = system: Hordeum vulgare; test: Inhibition of fatty acid synthesis in Hordeum vulgare (barley) using [14C]malonate assessed as [14C]-labeled 16C fatty acid level at 1 uM after 3 hr by liquid scintillation counting (reference value: 8.7 +/- 0.2%); type: functional; parameters: scale not given: the % may be the effect or the level left
[13] = system: Hordeum vulgare; test: Inhibition of fatty acid synthesis in Hordeum vulgare (barley) using [14C]acetate assessed as [14C]-labeled 22C fatty acid level at 1 uM after 3 hr by liquid scintillation counting (reference value: 16.6 +/- 0.6%); type: functional; parameters: scale not given: the % may be the effect or the level left
[14] = system: Hordeum vulgare; test: Inhibition of fatty acid synthesis in Hordeum vulgare (barley) using [14C]acetate assessed as [14C]-labeled 18C fatty acid level at 1 uM after 3 hr by liquid scintillation counting (reference value: 42.6 +/- 2.4%); type: functional; parameters: scale not given: the % may be the effect or the level left
[15] = system: Hordeum vulgare; test: Inhibition of fatty acid synthesis in Hordeum vulgare (barley) using [14C]acetate assessed as [14C]-labeled 24C fatty acid level at 1 uM after 3 hr by liquid scintillation counting (reference value: 11 +/- 0.8%); type: functional; parameters: scale not given: the % may be the effect or the level left
[16] = system: Cucumis sativus; test: Inhibition of fatty acid synthesis in Cucumis sativus (cucumber) using [14C]acetate assessed as [14C]-labeled 18C fatty acid level at 100 uM after 3 hr by liquid scintillation counting (reference value: 43.9 +/- 3.6%); type: functional; parameters: scale not given: the % may be the effect or the level left
[17] = system: Cucumis sativus; test: Inhibition of fatty acid synthesis in Cucumis sativus (cucumber) using [14C]acetate assessed as [14C]-labeled 22C fatty acid level at 100 uM after 3 hr by liquid scintillation counting (reference value: 10.2 +/-1.6%); type: functional; parameters: scale not given: the % may be the effect or the level left
[18] = system: Hordeum vulgare; test: Inhibition of fatty acid synthesis in Hordeum vulgare (barley) using [14C]acetate assessed as [14C]-labeled 16C fatty acid level at 1 uM after 3 hr by liquid scintillation counting (reference value: 23.3 +/- 0.2%); type: functional; parameters: scale not given: the % may be the effect or the level left
[19] = system: Hordeum vulgare; test: Inhibition of fatty acid synthesis in Hordeum vulgare (barley) using [14C]malonate assessed as [14C]-labeled 20C fatty acid level at 1 uM after 3 hr by liquid scintillation counting (reference value: 6.1 +/- 0.5%); type: functional; parameters: scale not given: the % may be the effect or the level left
[20] = system: Cucumis sativus; test: as §1, with “in Cucumis sativus (cucumber)” for “in Hordeum vulgare (barley)”, “at 100” for “at 1”, “value: 9.2” for “value: 4.6”, “+/- 2.1” for “+/- 1.2”; type: functional

## CCc1cc(C)cc(CC)c1C1C(=O)N2CCOCCN2C1=O [PINOXADEN DIONE]
[1]
  Activity: 13.8%
[2]
  Activity: 3.6%
[3]
  Activity: 8.3%
[4]
  IC50: 0.11 µM
[5]
  Activity: 27.7%
[6]
  Activity: 2.8 ×10⁶ dpm
[7]
  Activity: 41.9%
[8]
  Activity: 10.1%
[9]
  Activity: 5.1 ×10⁶ dpm
[10]
  IC50: 16.9 µM
[11]
  Activity: 30.4%
[12]
  Activity: 0.5%
[13]
  Activity: 32.7%
[14]
  Activity: 18.1%
[15]
  Activity: 32.6%
[16]
  Activity: 47.4%
[17]
  Activity: 11.9%
[18]
  Activity: 3.1%
[19]
  Activity: 7.7%
[20]
  Activity: 9.2 ×10⁶ dpm
